Reference: US20110112133A1, “DIHYDRO PYRROLOQUINOLINE DERIVATIVES” (Takeda Pharmaceutical Company Limited, priority 2009, published 2011)

Biological target: T1, hNK3 receptor (Homo sapiens, UniProt P29371)
T1 construct: expressed in transfected cells; host or cells: CHO cells
T1 sequence (P29371 1-465): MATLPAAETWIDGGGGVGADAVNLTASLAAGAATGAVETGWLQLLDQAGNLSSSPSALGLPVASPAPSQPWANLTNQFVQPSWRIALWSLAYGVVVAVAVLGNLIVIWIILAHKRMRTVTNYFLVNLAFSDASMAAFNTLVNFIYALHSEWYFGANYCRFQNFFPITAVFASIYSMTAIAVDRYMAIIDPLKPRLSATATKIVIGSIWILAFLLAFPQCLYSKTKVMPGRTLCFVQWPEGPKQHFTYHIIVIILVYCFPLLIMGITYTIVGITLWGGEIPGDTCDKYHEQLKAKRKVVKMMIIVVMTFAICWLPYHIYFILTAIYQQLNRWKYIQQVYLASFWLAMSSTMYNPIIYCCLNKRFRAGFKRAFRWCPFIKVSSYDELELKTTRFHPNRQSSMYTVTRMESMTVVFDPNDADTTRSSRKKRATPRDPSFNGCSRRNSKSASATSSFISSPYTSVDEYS
Test: Radioligand receptor binding inhibitory activity using membrane fraction of hNK3 receptor-expressing CHO cell ([125I]-NKB)
Details: for inhibition at 10 µM / inhibition at 1 µM: read-out: hNK3 receptor binding inhibitory activity (inhibitory rate (%))
Protocol: Radioligand Receptor Binding Inhibitory Activity Using Membrane Fraction of hNK3 Receptor-Expressing CHO Cell
hNK3 receptor-expressing CHO cells were cultured in a HAM-F12 medium containing 500 μg/mL Geneticin, 100 U/mL penicillin, 100 μg/mL streptomycin and 10% inactivated serum. The medium was removed before reaching confluence, and the cells were washed with PBS. PBS containing 0.5 mM EDTA was added to detach the cells from the flask and a cell suspension was recovered. The cells were recovered by low speed centrifugation. The cells were suspended in suspending buffer A (50 mM Tris-HCl (pH 7.4), 120 mM NaCl, 5 mM KCl, bacitracin (40 μg/mL), chymostatin (2 μg/mL), PMSF (0.5 mM), 1 mM EDTA), disrupted by a POLYTRON homogenizer (manufactured by KINEMATICA) and centrifuged at 2000×g for 10 min at 4° C. The supernatant was recovered, and ultracentrifuged at 40000×g for 60 min at 4° C. The precipitated fraction was suspended in suspending buffer B (50 mM Tris-HCl (pH 7.4), 3 mM MnCl2, 0.02% BSA, bacitracin (40 μg/mL), chymostatin (2 μg/mL), PMSF (0.5 mM)). The protein concentration of the suspension was measured using Bio-Rad Protein Assay kit and bovine serum albumin (protein preparation), and cryopreserved (at −80° C.) as a membrane fraction preparation of hNK3 receptor-expressing CHO cell until use for a binding assay.
The radioligand receptor binding assay was performed in a 96 well microassay plate format with a final volume of 200 μL. To the 96 well microassay plate were added 50 μL of assay buffer (50 mM Tris-HCl (pH 7.4), 0.02% bovine serum albumin, 2 μg/mL chymostatin, 40 μg/mL bacitracin, 40 μg/mL APMSF, 3 mM MnCl2), the aforementioned cryopreserved membrane fraction preparation suspended in assay buffer (50 μL (300 μg/mL)) and a test compound diluted with 50 μL of assay buffer (containing 2% dimethyl sulfoxide). The reaction was started by the addition of 50 μL of 400 pM [^125I]-NKB NKB (PerkinElmer Life Sciences) solution. For the measurement of the total binding, assay buffer (50 μL) containing 2% dimethyl sulfoxide was added instead of a diluted test compound solution, and for the measurement of non-specific binding, 50 μL of 4 μM unlabeled NKB (manufactured by Peptide Institute, Inc.) solution (diluted with assay buffer containing 2% dimethyl sulfoxide) was added.
After reaction at room temperature for 30 min, using a cell harvester (manufactured by PerkinElmer), the reaction was stopped by rapid filtration on a unifilter plate (GF/C) (manufactured by PerkinElmer), which had been immersed in 0.3% polyethyleneimine for one day, and the membrane fraction was washed 10 times with 50 mM Tris-HCl (pH 7.4) buffer containing 0.02% bovine serum albumin (250 μL). The GF/C filter plate was dried and 20 μL of MicroScinti-O (manufactured by PerkinElmer) was added to each well and the radioactivity was measured by TopCount (manufactured by PerkinElmer).
Specific binding is shown by the value obtained by subtracting non-specific binding from the total binding. The binding inhibitory activity of the test compound is shown by the ratio of the value obtained by subtracting the measured value associated with the addition of the test compound from the total binding, to the value of the specific binding.

| SMILES | inhibition at 10 µM (test compound 10^−5 M) [%] | hNK3 receptor binding inhibitory activity (inhibitory rate (%)) (test compound 10^−6 M) [%] | hNK3 receptor binding inhibitory activity (inhibitory rate (%)) (test compound 10^−5 M) [%] | inhibition at 1 µM (test compound 10^−6 M) [%] |
| --- | --- | --- | --- | --- |
| Cc1ccn(-c2ccc(C(=O)N[C@@H]3CCC(F)(F)C[C@@H]3C(=O)N3CCc4c(-c5ncc[nH]5)nc5ccccc5c43)cc2)n1 [Example 1, N-[(1R,2S)-4,4-difluoro-2-{[4-(1H-imidazol-2-yl)-2,3-dihydro-1H-pyrrolo[3,2-c]quinolin-1-yl]carbonyl}cyclohexyl]-4-(3-methyl-1H-pyrazol-1-yl)benzamide] | 28.4 | 9.0 | – | – |
| Br.Cc1ccn(-c2ccc(C(=O)N[C@@H]3CCC(F)(F)C[C@@H]3C(=O)N3CCc4c(-c5ncc[nH]5)nc5ccccc5c43)cc2)n1 [Example 2, N-[(1R,2S)-4,4-difluoro-2-{[4-(1H-imidazol-2-yl)-2,3-dihydro-1H-pyrrolo[3,2-c]quinolin-1-yl]carbonyl}cyclohexyl]-4-(3-methyl-1H-pyrazol-1-yl)benzamide hydrobromide] | – | 4.1 | 32.7 | – |
| Cc1ccn(-c2ccc(C(=O)N[C@@H]3CCC(F)(F)C[C@@H]3C(=O)N3CCc4c(-c5ncc[nH]5)nc5ccccc5c43)cc2)n1.Cl [Example 3, N-[(1R,2S)-4,4-difluoro-2-{(4-(1H-imidazol-2-yl)-2,3-dihydro-1H-pyrrolo[3,2-c]quinolin-1-yl]carbonyl}cyclohexyl]-4-(3-methyl-1H-pyrazol-1-yl)benzamide hydrochloride] | – | 9.4 | 30.4 | – |
| Cc1ccn(-c2ccc(C(=O)N[C@@H]3CCC(F)(F)C[C@@H]3C(=O)N3CCc4c(-c5nccn5COC(=O)C(C)(C)C)nc5ccccc5c43)cc2)n1 [Example 4, [2-(1-{[(1S,2R)-5,5-difluoro-2-({[4-(3-methyl-1H-pyrazol-1-yl)phenyl]carbonyl}amino)cyclohexyl]carbonyl)-2,3-dihydro-1H-pyrrolo[3,2-c]quinolin-4-yl)-1H-imidazol-1-yl]methyl 2,2-dimethylpropanoate] | -7.9 | – | – | -6.1 |
| Cc1ccn(-c2ccc(C(=O)N[C@@H]3CCC(F)(F)C[C@@H]3C(=O)N3CCc4c(-c5ncc[nH]5)nc5ccc(F)cc5c43)cc2)n1 [Example 5, N-[(1R,2S)-4,4-difluoro-2-{[8-fluoro-4-(1H-imidazol-2-yl)-2,3-dihydro-1H-pyrrolo[3,2-c]quinolin-1-yl]carbonyl}cyclohexyl]-4-(3-methyl-1H-pyrazol-1-yl)benzamide] | 15.2 | – | – | -8.1 |
| Cc1ccn(-c2ccc(C(=O)N[C@@H]3CCC(F)(F)C[C@@H]3C(=O)N3CCc4c(-c5ccsc5)nc5ccccc5c43)cc2)n1 [Example 7, N-[(1R,2S)-4,4-difluoro-2-{(4-thiophen-3-yl-2,3-dihydro-1H-pyrrolo[3,2-c]quinolin-1-yl)carbonyl]cyclohexyl}-4-(3-methyl-1H-pyrazol-1-yl)benzamide] | 35.6 | – | – | 5.9 |
| Cc1ccn(-c2ccc(C(=O)N[C@@H]3CCC(F)(F)C[C@@H]3C(=O)N3CCc4c(-c5ccccc5)nc5ccc(F)cc5c43)cc2)n1 [Example 9, N-{(1R,2S)-4,4-difluoro-2-[(8-fluoro-4-phenyl-2,3-dihydro-1H-pyrrolo[3,2-c]quinolin-1-yl)carbonyl]cyclohexyl}-4-(3-methyl-1H-pyrazol-1-yl)benzamide] | 53.1 | – | – | 27.7 |
